Source: the supplement of paper PMC11061612

Assays:
Test in all cases: combination Emax (second highest fraction inhibited in the dose matrix, 72 h); higher = more inhibition; extreme values may be limits of the assay
[1] = tested on: CAL-51 (Breast Carcinoma)
Procedure, shortened: (§1)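 After 24 hours at 37°C and 5% CO2 in 1536-well plates, cells in DMEM/F12 or RPMI plus 10% FBS received two-drug dose matrices for 72 hours. Viability came from CellTiter-Glo 2.0 luminescence and was scaled as inhibition, anchored at 0 by vehicle wells and at 1 by blank wells. Combination Emax is taken as the second-highest inhibition in the matrix, and Bliss excess as the observed combination effect less EA + EB − EA·EB, with EA and EB the single-agent effects.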

[2] = tested on: CAL-54 (Kidney Carcinoma)
Procedure, shortened: as §1

[3] = tested on: HARA (Squamous Cell Lung Carcinoma)
Procedure, shortened: as §1

[4] = tested on: HCC-15 (Squamous Cell Lung Carcinoma)
Procedure, shortened: as §1

[5] = tested on: HDLM-2 (Hodgkin's Lymphoma)
Procedure, shortened: as §1

[6] = tested on: HO-1-u-1 (Oral Cavity Carcinoma)
Procedure, shortened: as §1

[7] = tested on: K5 (Thyroid Gland Carcinoma)
Procedure, shortened: as §1

[8] = tested on: KYSE-410 (Esophageal Squamous Cell Carcinoma)
Procedure, shortened: as §1

[9] = tested on: LoVo (Colorectal Carcinoma)
Procedure, shortened: as §1

[10] = tested on: NB14 (Neuroblastoma)
Procedure, shortened: as §1

[11] = tested on: NCI-H2795 (Mesothelioma)
Procedure, shortened: as §1

[12] = tested on: NCI-H69 (Small Cell Lung Carcinoma)
Procedure, shortened: as §1

[13] = tested on: OC-314 (Ovarian Carcinoma)
Procedure, shortened: as §1

[14] = tested on: OVCAR-8 (Ovarian Carcinoma)
Procedure, shortened: as §1

[15] = tested on: RPMI-6666 (Non-Cancerous)
Procedure, shortened: as §1

[16] = tested on: RT-112 (Bladder Carcinoma)
Procedure, shortened: as §1

[17] = tested on: SW1116 (Colorectal Carcinoma)
Procedure, shortened: as §1

[18] = tested on: SW1271 (Small Cell Lung Carcinoma)
Procedure, shortened: as §1

[19] = tested on: UMC-11 (Other Solid Carcinomas)
Procedure, shortened: as §1

[20] = tested on: MDA-MB-468 (Breast Carcinoma)
Procedure, shortened: as §1

Structure (SMILES)	combination Emax [1]	combination Emax [2]	combination Emax [3]	combination Emax [4]	combination Emax [5]	combination Emax [6]	combination Emax [7]	combination Emax [8]	combination Emax [9]	combination Emax [10]	combination Emax [11]	combination Emax [12]	combination Emax [13]	combination Emax [14]	combination Emax [15]	combination Emax [16]	combination Emax [17]	combination Emax [18]	combination Emax [19]	combination Emax [20]
Cn1cnc2c(F)c(Nc3ccc(Br)cc3Cl)c(C(=O)NOCCO)cc21 [Selumetinib] + CC(C)n1c(=O)n(C)c2cnc3cc(F)c(-c4ccc(OCCCN5CCCCC5)nc4)cc3c21 [AZD1390] (first compound max 10 µM, 7x7, partner max 0.3 µM)	0.157	0.346	0.184	0.421	0.138	0.188	0.51	0.163	0.425	0.241	0.846	0.122	0.211	0.132	0.368	0.353	0.502	0.499	0.0797	
Cn1cnc2c(F)c(Nc3ccc(Br)cc3Cl)c(C(=O)NOCCO)cc21 [Selumetinib] + CCN(CCO)CCCOc1ccc2c(Nc3cc(CC(=O)Nc4cccc(F)c4)[nH]n3)ncnc2c1 [AZD2811] (first compound max 10 µM, 7x7, partner max 1 µM)	0.479	0.382	0.409	0.799	0.151	0.328	0.599	0.256	0.445	0.866	0.858	0.548	0.425	0.246	0.557	0.456	0.534	0.485	0.818	
COc1nnc2ccc(N3CCC(c4ccc(OCCN5CCN(C)C(=O)[C@H]5C)cc4)CC3)nn12 [AZD5153] + C=CCn1c(=O)c2cnc(Nc3ccc(N4CCN(C)CC4)cc3)nc2n1-c1cccc(C(C)(C)O)n1 [AZD1775] (first compound max 1 µM, partner max 1 µM)	0.956	0.832	0.928	0.674	0.732	0.735	0.719	0.491	0.656	1	0.597	0.678	0.912	0.863	0.828	0.661	0.397	0.649	0.9	
C=CCn1c(=O)c2cnc(Nc3ccc(N4CCN(C)CC4)cc3)nc2n1-c1cccc(C(C)(C)O)n1 [AZD1775] + C[C@@H]1COCCN1C2=NC(=NC(=C2)C3(CC3)[S@](=N)(=O)C)C4=C5C=CNC5=NC=C4 [AZD6738] (first compound max 1 µM, partner max 10 µM)	0.936	0.759	0.906	0.504	0.772	0.973	0.749	0.499	0.875	1	0.803	0.849	0.941	0.966		0.966	0.506	0.637	0.785	0.634
COc1cc2ncnc(Nc3ccc(F)c(Cl)c3)c2cc1OCCCN1CCOCC1 [Gefitinib] + CC(C)n1c(=O)n(C)c2cnc3cc(F)c(-c4ccc(OCCCN5CCCCC5)nc4)cc3c21 [AZD1390] (first compound max 10 µM, 7x7, partner max 0.3 µM)	0.068	0.486	0.298	0.0725	0.192	0.487	0.0692	0.362	0.421	0.128	0.324	0.286	0.255	0.223	0.615	0.176	0.241	0.188	0.0797	
COc1nnc2ccc(N3CCC(c4ccc(OCCN5CCN(C)C(=O)[C@H]5C)cc4)CC3)nn12 [AZD5153] + CC1(C)CCC(CN2CCN(c3ccc(C(=O)NS(=O)(=O)c4ccc(NCC5CCOCC5)c([N+](=O)[O-])c4)c(Oc4cnc5[nH]ccc5c4)c3)CC2)=C(c2ccc(Cl)cc2)C1 [Venetoclax] (first compound max 1 µM, 7x7, partner max 1 µM)	0.673	0.769	0.654	0.329	0.612	0.55	0.668	0.266	0.464	0.761	0.465	0.636	0.814	0.661	0.764	0.239	0.353	0.57	0.769	
C=CCn1c(=O)c2cnc(Nc3ccc(N4CCN(C)CC4)cc3)nc2n1-c1cccc(C(C)(C)O)n1 [AZD1775] + O=C(c1cc(Cc2n[nH]c(=O)c3ccccc23)ccc1F)N1CCN(C(=O)C2CC2)CC1 [Olaparib] (first compound max 1 µM, partner max 10 µM)	0.811	0.679	0.743	0.31	0.74	0.644	0.528	0.251	0.781	0.986	0.57	0.478	0.631	0.797		0.705	0.343	0.619	0.438	0.484
